This is an account of results in publication PMC9092651, “Improving Thermostability and Catalytic Activity of Glycosyltransferase From Panax ginseng by Semi-Rational Design for Rebaudioside D Synthesis” (Frontiers in Bioengineering and Biotechnology, 2022).

Each structure is given as a SMILES string.

For this assay, the target named is T1, EUGT11 (Oryza sativa, UniProt Q0DPB7).
T1 construct: gene Os03g0702000
T1 sequence (Q0DPB7 1-462): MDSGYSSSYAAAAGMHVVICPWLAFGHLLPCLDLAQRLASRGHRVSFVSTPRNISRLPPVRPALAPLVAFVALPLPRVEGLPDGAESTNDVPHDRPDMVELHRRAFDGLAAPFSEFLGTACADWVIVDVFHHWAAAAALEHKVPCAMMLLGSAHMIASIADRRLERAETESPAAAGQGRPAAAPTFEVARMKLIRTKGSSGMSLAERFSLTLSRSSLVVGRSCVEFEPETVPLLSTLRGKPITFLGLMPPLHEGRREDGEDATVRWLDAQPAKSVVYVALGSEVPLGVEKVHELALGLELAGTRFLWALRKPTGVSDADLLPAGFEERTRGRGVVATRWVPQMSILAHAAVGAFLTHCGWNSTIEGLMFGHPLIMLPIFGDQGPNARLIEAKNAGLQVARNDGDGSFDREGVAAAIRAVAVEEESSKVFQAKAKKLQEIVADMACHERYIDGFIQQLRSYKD
Description: cell-free synthesised enzyme, HPLC product detection. Particulars: 2 mM UDP-glucose, 2 mM Reb A, 50 mM PBS pH 8.0, 35 °C, 12 h; positive control.

Turning to `C=C1C[C@@]23CC[C@H]4[C@@](C)(CCC[C@@]4(C)C(=O)O[C@@H]4O[C@H](CO)[C@@H](O)[C@H](O)[C@H]4O)[C@@H]2CC[C@]1(O[C@@H]1O[C@H](CO)[C@@H](O)[C@H](O[C@@H]2O[C@H](CO)[C@@H](O)[C@H](O)[C@H]2O)[C@H]1O[C@@H]1O[C@H](CO)[C@@H](O)[C@H](O)[C@H]1O)C3` [Reb A], the “cell-free synthesised enzyme, HPLC product detection” value is “the glycosylated product of Reb A catalyzed by EUGT11 had the same HPLC retention time”.
